In patent US9114149B2, “[CU(thp)4]n[X]-n compounds for the treatment of a broad range of human solid tumors, including refractory tumors” (Universita Degli Studi Di Padova, priority 2011, dated 2015):
Marks after values point to notes of the source that are not given here.

How the values were obtained:
C57BL mice = assay: Acute toxicity tests in healthy C57BL mice; type: in vivo; settings: observed 24 hrs
Procedure: The acute toxicity was assessed by treating BALB/c or C57BL mice with a single intraperitoneal (i.p.) or endovenous (e.v.) administration of different amounts, i.e. 3.125, 6.25, 12.5, 25, 50, 100 and 200 mg/kg of tested compounds.
To preliminarily establish the toxicity profile of CP, acute and repeat-dose toxicity studies were performed in BALB/c mice and in C57BL mice.

[1] = Tissue distribution (Cu content) in LLC bearing mice; type: in vivo, C57BL mice; settings: 50 mg/kg i.p., 24 hrs; Cu by atomic absorption, treated versus control (FIG. 4)
Procedure: Mice were inoculated […]. on the right flank with 2×10^6 LLC cells. After 10 days, CP was administered i.p. at a dose of 50 mg/kg. The mice were sacrificed after 24 hours and tumor (indicated with 1), brain (indicated with 2), spleen (indicated with 3), kidney (indicated with 4), intestine (indicated with 5), liver (indicated with 6) and stomach (indicated with 7) were excised. Tissues were washed in ice-cold saline and weighed after removing excess fluid. All samples were mineralized in HNO3 and Cu content in each sample was measured by atomic absorption spectrophotometry. The Y axis indicates the ratio of copper amount in treated versus control mice.
To assess the potential selectivity to the solid tumor mass, tissue distribution of CP was investigated in LLC bearing C57BL mice. Biodistribution studies are very helpful in assessing the ability of a molecule to traverse multilayers of cells. Chemotherapy of solid tumors often fails because adequate cytotoxic concentrations are not achieved due to poor penetration and non-uniform distribution of the drug.
To assess the potential selectivity to the solid tumor mass, tissue distribution of [Cu(thp)4][PF6] (CP) was investigated in LLC bearing C57BL mice. On day 10 after tumor implantation, mice were treated with a single i.p. injection of 50 mg/kg of CP.

[2] = test system: human cancer versus human normal cells
[3] = human non-tumor versus malignant cells

F[P-](F)(F)(F)(F)F.OC[P+](CO)(CO)[Cu-3]([P+](CO)(CO)CO)([P+](CO)(CO)CO)[P+](CO)(CO)CO [CP, [Cu(thp)4][PF6]]
LD50 (C57BL mice; single e.v. administration): 115^b mg/kg
LD50 (C57BL mice; single i.p. administration): 125^a mg/kg
CP concentration in solid tumor mass [1]: highest CP concentration
copper drug in brain [1]: No copper drug was detected
copper drug in intestinal tract [1]: very little
Selectivity index (SI) ([2]; average IC50 towards normal cells divided by average IC50 for the malignant cells): 32.4
SI fold higher than CDDP [2, 3]: about 2 fold
SI fold higher than OXP [2, 3]: ~3 fold
